For one data set, the target named is MNK2 (Homo sapiens, UniProt Q9HBH9). Nature of the data set: MNK2 substrate phosphorylation assay. The format is biochemical. The note with it: recombinant human kinase.
In another data set the target is MNK1 (Homo sapiens, UniProt Q9BUB5). The experiment in a line: MNK1 substrate phosphorylation assay. In kind it is biochemical. The note with it: recombinant human kinase.
Data set [1] can be described thus: Liver microsome stability, human. The format is in vitro ADME. The settings on record: liver microsomes; for half-life: read-out: Human liver microsomes t1/2.
In data set [2] the test system is eIF4E phosphorylation at Serine 209 in the human embryonic kidney (HEK) 293 cell line. The experiment in a line: eIF4E phosphorylation in HEK 293 cells (fluorescent plate reader). In kind it is cell-based. The note with it: eIF4E phosphorylation at Serine 209, 2 hours exposure. The method, then:
The ability of MNK inhibitors described herein to inhibit eIF4E phosphorylation at Serine 209 in the human embryonic kidney (HEK) 293 cell line was tested by exposing the cells to compound for 2 hours and then measuring eIF4E phosphorylation with a phosphorylation-specific antibody in a fluorescent plate reader. These experiments were done with HEK-293 cells plated on 96 well plates. Following treatment, cells were fixed with ice cold methanol for 10 min and then washed in 1× phosphate buffered saline (PBS) and the permeabilized with 0.02% Triton X-100 in 10% normal goat serum made up in PBS. Primary antibody was applied overnight at a concentration dilution of 1:2000 (p-eIF4E antibody from Cell Signaling ab76256). Following washing, cells were then exposed to secondary antibody conjugated to alexa-fluor 488 and then visualized on a Syngergy HTX plate reader. Fluorescence for p-eIF4E was measured and normalized to total DAPI fluorescence to determine the percentage of eIF4E phosphorylation in each well. Data were plotted in Graphpad Prism V8 to determine concentration-response effects and calculate IC50 values.

Data set [3] is described as follows: Liver microsome stability, rat. In kind it is in vitro ADME. The settings on record: Rat liver microsomes (#); for microsomal CLint: read-out: CLint rodent; for half-life: read-out: Rodent liver microsomes t1/2. In general terms: Microsomes from liver hold many membrane-bound enzymes, among them those of drug oxidation.
The subject of another data set is P-gp (human MDR1, ABCB1). The experiment in a line: MDCK-MDR1 permeability (blood brain barrier permeability). In kind it is in vitro ADME, Canine. The settings on record: dog; for efflux ratio at 5 μM: MDCK-MDR1, 5 μM, read-out: Efflux ratio (ratio B-A/A-B); for Papp A→B at 5 μM: MDCK-MDR1, Apical to basolateral transport; for Papp A→B at 5 μM / Papp B→A at 5 μM: average of two experiments; for Papp B→A at 5 μM: MDCK-MDR1, Basolateral to apical transport.

Data set [4] in a line: Liver microsome stability, mouse. The format is in vitro ADME. The note with it: mouse, liver microsomes, mouse liver microsomes, Table 11b; read-out: T1/2.

Sequence of MNK1 (Q9BUB5 whole entry): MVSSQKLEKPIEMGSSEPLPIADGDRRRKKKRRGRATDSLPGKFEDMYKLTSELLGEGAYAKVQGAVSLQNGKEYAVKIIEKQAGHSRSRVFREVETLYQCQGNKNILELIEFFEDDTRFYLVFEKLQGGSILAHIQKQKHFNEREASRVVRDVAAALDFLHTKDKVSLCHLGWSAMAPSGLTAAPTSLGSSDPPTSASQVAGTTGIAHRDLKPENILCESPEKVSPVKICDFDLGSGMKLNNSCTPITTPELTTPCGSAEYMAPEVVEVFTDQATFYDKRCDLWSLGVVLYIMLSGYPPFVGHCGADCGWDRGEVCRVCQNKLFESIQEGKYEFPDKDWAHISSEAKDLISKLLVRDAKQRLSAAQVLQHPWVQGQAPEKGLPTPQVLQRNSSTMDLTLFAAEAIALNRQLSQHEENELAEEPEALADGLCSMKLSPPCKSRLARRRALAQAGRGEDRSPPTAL
Sequence of MNK2 (Q9HBH9 whole entry): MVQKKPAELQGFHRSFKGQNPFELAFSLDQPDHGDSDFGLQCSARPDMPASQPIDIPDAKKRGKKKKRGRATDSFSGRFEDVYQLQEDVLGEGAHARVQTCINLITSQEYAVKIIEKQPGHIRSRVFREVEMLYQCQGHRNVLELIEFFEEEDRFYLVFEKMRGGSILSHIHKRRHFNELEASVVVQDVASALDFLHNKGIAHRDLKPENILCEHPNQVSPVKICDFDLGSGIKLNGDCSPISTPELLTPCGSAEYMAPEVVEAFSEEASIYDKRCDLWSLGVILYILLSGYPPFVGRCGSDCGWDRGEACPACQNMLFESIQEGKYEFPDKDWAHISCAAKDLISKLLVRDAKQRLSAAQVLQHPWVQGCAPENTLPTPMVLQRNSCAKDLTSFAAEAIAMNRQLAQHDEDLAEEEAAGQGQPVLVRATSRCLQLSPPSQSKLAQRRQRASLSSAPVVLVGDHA

For orientation: IC50 means the concentration that inhibits the measured activity by half. Take `Cc1cc(Nc2cc(NC(=O)C3CC3)ncn2)c(=O)n2c1C(=O)NC21CCCCC1` [Compound 4ET-02-003, N-(6-((8′-Methyl-1′,5′-dioxo-1′,5′-dihydro-2′H-spiro[cyclohexane-1,3′-imidazo[1,5-a]pyridin]-6′-yl)amino)pyrimidin-4-yl)cyclopropanecarboxamide]: the IC50 at MNK2 turned out to be 4.1 nM; on MNK1 it was 140 nM; in data set [2] (Homo sapiens, HEK293, 2 h) it was 1.4 nM. Moreover, the microsomal CLint in data set [1] was 2.31 µL/min/mg; in data set [3], 3.75 µL/min/mg. Also, the half-life in data set [1] was found to be 9.98 h; in data set [3], 6.17 h.
Consider `Cc1cc(Nc2cc(NCCN3CCOCC3)ncn2)c(=O)n2c1C(=O)NC21CCOCC1` [Compound 4ET-03-010], for which the IC50 at MNK2 amounted to 84.8 nM; at MNK1 it was 382 nM; in data set [2] (Homo sapiens, HEK293, 2 h), 164 nM.
As usually defined, the Papp A→B is how fast a substance crosses the layer from the apical side. Read a high Papp A→B as ready permeation. As a reminder, the Papp B→A is the apparent permeability from the basolateral to the apical side of a cell layer. For the molecule `Cc1cc(Nc2cc(NCCN3CCOCC3)ncn2)c(=O)n2c1C(=O)NC21CCCCC1` [Compound 4ET-02-005], in the data set with P-gp (human MDR1, ABCB1), the efflux ratio at 5 μM was 9.4, the Papp A→B at 5 μM was 4.5 ×10⁻⁶ cm/s and the Papp B→A at 5 μM is 42.2 ×10⁻⁶ cm/s. Moreover, on MNK2, the IC50 was 10.4 nM. The IC50 on MNK1 was 45.1 nM. In data set [1], the microsomal CLint stood at 5.64 µL/min/mg and the half-life came to 4.1 h. The molecule further showed an IC50 in data set [2] (Homo sapiens, HEK293, 2 h) of 22.5 nM. In data set [3], the microsomal CLint stood at 13.6 µL/min/mg and the half-life was found to be 1.7 h.
In the case of `Cc1cc(Nc2cc(NCCO)ncn2)c(=O)n2c1C(=O)NC21CCCC1` [Compound 4ET-03-007, 6′-((6-((2-Hydroxyethyl)amino)pyrimidin-4-yl)amino)-8′-methyl-2′H-spiro[cyclopentane-1,3′-imidazo[1,5-a]pyridine]-1′,5′-dione], in the data set on P-gp (human MDR1, ABCB1), the efflux ratio at 5 μM came to 6.3, the apical-to-basolateral permeability (Papp A→B) at 5 μM was found to be 2.4 ×10⁻⁶ cm/s and the Papp B→A at 5 μM was 15.1 ×10⁻⁶ cm/s. The IC50 on MNK2 was 4.9 nM. Besides, the IC50 at MNK1 turned out to be 96.7 nM. Moreover, the midpoint of inhibition in data set [2] (Homo sapiens, HEK293, 2 h), the IC50, lay at 10 nM.
`Cc1cc(Nc2cc(N)ncn2)c(=O)n2c1C(=O)NC21Cc2ccccc2[C@@H]1F` (single isomer, unassigned) [Compound 4ET-01-010A, 6-((6-Aminopyrimidin-4-yl)amino)-1′-fluoro-8-methyl-1′,3′-dihydro-2H-spiro[imidazo[1,5-a]pyridine-3,2′-indene]-1,5-dione]: in the data set with P-gp (human MDR1, ABCB1), the efflux ratio at 5 μM worked out at 1.5, the Papp A→B at 5 μM came to 42.7 ×10⁻⁶ cm/s and the Papp B→A at 5 μM was 63.9 ×10⁻⁶ cm/s. At MNK2, the IC50 came to 9.24 nM. Further, the IC50 on MNK1 was found to be 73.4 nM. For the same molecule, the half-life in data set [4] was found to be 1.92 h. The molecule also returned an IC50 in data set [2] of 35.4 nM.
For the molecule `CCC1=CC2(CCC1)NC(=O)c1c(C)cc(Nc3cc(NC(=O)C4CC4)ncn3)c(=O)n12` (stereo not drawn) [Compound 4ET-03-039, N-(6-((3-Ethyl-8′-methyl-1′,5′-dioxo-1′,5′-dihydro-2′H-spiro[cyclohexane-1,3′-imidazo[1,5-a]pyridin]-2-en-6′-yl)amino)pyrimidin-4-yl)cyclopropanecarboxamide], the IC50 amounted to 1.62 nM on MNK2; 31.6 nM on MNK1; 2.6 nM in data set [2] (Homo sapiens, HEK293, 2 h).
As to `Cc1cc(Nc2cc(NC(=O)C3CC3)ncn2)c(=O)n2c1C(=O)NC21CCOc2ccc(Cl)cc21` (stereo not drawn) [Compound 4ET-03-036], the 50% inhibitory concentration (IC50) on MNK2 came out at 5.65 nM; at MNK1 it was 118 nM; in data set [2] (Homo sapiens, HEK293, 2 h) it was 8.6 nM.
Turning to `Cc1cc(Nc2cc(N)ncn2)c(=O)n2c1C(=O)NC21CCCC1` [Compound 4ET-01-001, 6′-((6-Aminopyrimidin-4-yl)amino)-8′-methyl-2′H-spiro[cyclopentane-1,3′-imidazo[1,5-a]pyridine]-1′,5′-dione], the IC50 in data set [2] (Homo sapiens, HEK293) came to 10.9 nM.
`Cc1cc(Nc2cc(NCCNS(C)(=O)=O)ncn2)c(=O)n2c1C(=O)NC2(C)C` [Compound 4ET-03-012]: the IC50 on MNK2 was 273 nM; at MNK1 it was 441 nM.
`Cc1cc(Nc2cc(NC(=O)C(C)C)ncn2)c(=O)n2c1C(=O)NC2(C)C` [Compound 4ET-03-001]: the IC50 at MNK2 amounted to 11.9 nM; at MNK1 it was 119 nM; in data set [2] (Homo sapiens, HEK293, 2 h) it was 47 nM.
For `Cc1cc(Nc2cc(NCCO)ncn2)c(=O)n2c1C(=O)NC2(C)C` [Compound 4ET-03-004], the IC50 is 7.7 nM at MNK2; 84.5 nM at MNK1; 86.6 nM in data set [2] (Homo sapiens, HEK293, 2 h).
As for `Cc1cc(Nc2cc(NC(=O)C3CC3)ncn2)c(=O)n2c1C(=O)NC21Cc2ccccc2[C@@H]1O` (stereo in doubt) [Compound 4ET-03-063, N-(6-((1′-Hydroxy-8-methyl-1,5-dioxo-1,1′,3′,5-tetrahydro-2H-spiro[imidazo[1,5-a]pyridine-3,2′-inden]-6-yl)amino)pyrimidin-4-yl)cyclopropanecarboxamide], in the data set with P-gp (human MDR1, ABCB1), the efflux ratio at 5 μM worked out at 10.2, the Papp A→B at 5 μM turned out to be 8.7 ×10⁻⁶ cm/s and the Papp B→A at 5 μM came out at 64.9 ×10⁻⁶ cm/s. In addition, the IC50 at MNK2 is 3 nM. In addition, the IC50 at MNK1 was 35 nM. Besides, the half-life in data set [4] came to 3.7 h. For the same molecule, half-maximal inhibition in data set [2] (Homo sapiens, HEK293, 2 h) (IC50) required 17 nM.
In the case of `Cc1cc(Nc2cc(NC(=O)C(C)C)ncn2)c(=O)n2c1C(=O)NC21CCOCC1` [Compound 4ET-03-008], the IC50 on MNK2 is 7.4 nM; at MNK1, 65.5 nM; in data set [2] (Homo sapiens, HEK293, 2 h), 52.6 nM.
Consider `Cc1cc(Nc2cc(NCCC(=O)O)ncn2)c(=O)n2c1C(=O)NC21CCCCC1` [Compound 4ET-02-006, 3-((6-((8′-Methyl-1′,5′-dioxo-1′,5′-dihydro-2′H-spiro[cyclohexane-1,3′-imidazo[1,5-a]pyridin]-6′-yl)amino)pyrimidin-4-yl)amino)propanoic acid], for which, in the data set with P-gp (human MDR1, ABCB1), the efflux ratio at 5 μM is 0.8, the Papp A→B at 5 μM came to 0.1 ×10⁻⁶ cm/s and the Papp B→A at 5 μM worked out at 0.1 ×10⁻⁶ cm/s. For the same molecule, the half-maximal inhibitory concentration (IC50) at MNK2 amounted to 14.4 nM. On MNK1, the IC50 amounted to 346 nM.
In the case of `Cc1cc(Nc2cc(NCCO)ncn2)c(=O)n2c1C(=O)NC21CCOCC1` [Compound 4ET-03-011], the concentration for half-maximal inhibition (IC50) on MNK2 turned out to be 27.8 nM; on MNK1, 203 nM; in data set [2] (Homo sapiens, HEK293, 2 h) it was 32.4 nM.
Turning to `Cc1cc(Nc2cc(NCCNS(C)(=O)=O)ncn2)c(=O)n2c1C(=O)NC21CCOCC1` [Compound 4ET-03-014], the IC50 on MNK2 was determined as 32.8 nM; on MNK1, 107 nM.
With `Cc1cc(Nc2cc(NCCN3CCOCC3)ncn2)c(=O)n2c1C(=O)NC21CCCC1` [Compound 4ET-03-006, 8′-Methyl-6′-((6-((2-morpholinoethyl)amino)pyrimidin-4-yl)amino)-2′H-spiro[cyclopentane-1,3′-imidazo[1,5-a]pyridine]-1′,5′-dione], the IC50 on MNK2 was determined as 5.9 nM; at MNK1, 64.6 nM; in data set [2] (Homo sapiens, HEK293, 2 h) it was 53 nM.
For `Cc1cc(Nc2cc(NC(=O)C3CC3)ncn2)c(=O)n2c1C(=O)NC21Cc2ccc(Cl)cc2C1` (stereo not drawn) [Compound 4ET-03-054], the IC50 was determined as 5.7 nM at MNK2; 118 nM on MNK1; 8.6 nM in data set [2] (Homo sapiens, HEK293, 2 h).
In the case of `Cc1cc(Nc2cc(NC(=O)C3CC3)ncn2)c(=O)n2c1C(=O)NC2(C)C` [Compound 4ET-03-002, N-(6-((3,3,8-Trimethyl-1,5-dioxo-1,2,3,5-tetrahydroimidazo[1,5-a]pyridin-6-yl)amino)pyrimidin-4-yl)cyclopropanecarboxamide], the half-inhibitory concentration (IC50) at MNK1 stood at 133 nM; in data set [2] (Homo sapiens, HEK293), 5.3 nM.
For the molecule `Cc1cc(Nc2cc(N)ncn2)c(=O)n2c1C(=O)NC21Cc2ccccc2[C@@H]1F` (single isomer, unassigned) [Compound 4ET-01-010B, 6-((6-Aminopyrimidin-4-yl)amino)-1′-fluoro-8-methyl-1′,3′-dihydro-2H-spiro[imidazo[1,5-a]pyridine-3,2′-indene]-1,5-dione], the IC50 worked out at 96.6 nM at MNK2, 348 nM at MNK1 and 71.3 nM in data set [2].
Turning to `Cc1cc(Nc2cc(NC(=O)C3CC3)ncn2)c(=O)n2c1C(=O)NC2(C)c1cccc(Cl)c1` (stereo not drawn) [Compound 4ET-03-035], the half-inhibitory concentration (IC50) at MNK2 came out at 4.3 nM; at MNK1, 128 nM; in data set [2] (Homo sapiens, HEK293, 2 h), 8.7 nM.
As to `Cc1cc(Nc2cc(NCCN3CCOCC3)ncn2)c(=O)n2c1C(=O)NC2(C)C` [Compound 4ET-03-003], the IC50 on MNK2 was 22.6 nM; at MNK1, 80.2 nM; in data set [2] (Homo sapiens, HEK293, 2 h), 110 nM.
On to `Cc1cc(Nc2cc(N3CCN(CCN(C)C)CC3)ncn2)c(=O)n2c1C(=O)NC21CCCCC1` [Compound 4ET-02-002], for which, at MNK2, the “MNK2 IC50” value was “inactive”. Moreover, the “MNK1 IC50” value on MNK1 is “inactive”.

The record behind these values is patent US20230286983A1 (4E Therapeutics, Inc., priority 2020, published 2023).
